The compounds below were run against T1, HEK-Blue-hTLR9 cells (Homo sapiens, UniProt Q9NR96) (assay: HEK-Blue-hTLR9 cell inhibition assay). Conditions: ODN2006 1 µM, 16 h, OD 620 nm, read-out: TLR9 IC50.
T1 construct: expressed in transfected cells; host or cells: HEK-Blue-hTLR9 cells (HEK293-derived reporter line)
T1 sequence (Q9NR96 26-1032): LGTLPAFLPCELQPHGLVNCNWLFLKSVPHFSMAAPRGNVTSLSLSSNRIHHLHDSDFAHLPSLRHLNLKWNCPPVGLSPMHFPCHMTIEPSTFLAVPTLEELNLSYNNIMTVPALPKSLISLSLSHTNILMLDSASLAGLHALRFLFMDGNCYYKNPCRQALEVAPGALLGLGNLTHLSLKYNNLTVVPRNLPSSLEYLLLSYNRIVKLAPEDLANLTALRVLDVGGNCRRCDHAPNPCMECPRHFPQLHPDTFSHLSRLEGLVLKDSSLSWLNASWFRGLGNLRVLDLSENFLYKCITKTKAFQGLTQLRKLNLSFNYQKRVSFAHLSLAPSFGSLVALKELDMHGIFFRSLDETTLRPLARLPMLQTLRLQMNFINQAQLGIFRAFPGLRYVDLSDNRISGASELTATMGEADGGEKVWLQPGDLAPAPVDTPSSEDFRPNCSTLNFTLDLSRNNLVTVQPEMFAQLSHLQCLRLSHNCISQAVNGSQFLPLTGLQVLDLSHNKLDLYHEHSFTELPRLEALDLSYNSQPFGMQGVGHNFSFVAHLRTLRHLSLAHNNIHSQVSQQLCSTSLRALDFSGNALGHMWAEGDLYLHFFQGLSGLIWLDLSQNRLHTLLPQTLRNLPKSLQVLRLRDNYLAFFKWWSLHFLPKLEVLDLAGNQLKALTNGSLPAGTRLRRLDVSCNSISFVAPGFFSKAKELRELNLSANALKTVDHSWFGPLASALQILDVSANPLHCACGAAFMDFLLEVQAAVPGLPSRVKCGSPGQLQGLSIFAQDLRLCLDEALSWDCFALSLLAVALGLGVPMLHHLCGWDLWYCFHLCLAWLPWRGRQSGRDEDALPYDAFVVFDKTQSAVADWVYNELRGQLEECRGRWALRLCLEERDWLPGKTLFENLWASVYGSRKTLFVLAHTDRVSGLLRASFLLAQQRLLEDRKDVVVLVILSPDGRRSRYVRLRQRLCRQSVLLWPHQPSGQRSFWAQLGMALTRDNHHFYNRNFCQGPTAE
Assay type: cell-based
Protocol: HEK-Blue-hTLR7/8/9 cell inhibition assay
1. HEK-Blue-hTLR7/8 cells (1 × 10^4 cells/well) and HEK-Blue-hTLR9 cells (1.5 × 10^4 cells/well) were seeded in a 384-well cell culture plate, with a volume of 30 µL per well. The plate was incubated at 37°C in a 5% CO2 incubator for 4 h. 2. The compound was prepared with DMSO and diluted in DMEM medium to 10 concentrations (1:3 dilution), with final concentrations of 10000, 3333.3, 1111.1, 370.4, 123.5, 41.2, 13.7, 4.6, 1.5, and 0.5 nM; R848 was prepared with DMSO and diluted in DMEM medium, with final concentrations of 0.8 µM (HEK-Blue-hTLR7) and 3 µM (HEK-Blue-hTLR8); ODN2006 was prepared with endotoxin-free water and diluted in DMEM medium, with a final concentration of 1 µM. 3. Cells treated with DMSO were used as the blank control group, while cells treated solely with Resiquimod (R848) were used as the positive control group for HEK-Blue-hTLR7/8, and cells treated solely with ODN2006 were used as the positive control group for HEK-Blue-hTLR9. Cells treated with the test compound together with R848 or ODN2006 were used as the test group. Two parallel wells were set for each group and were placed at 37°C in a 5% CO2 incubator for incubation. 4. After being incubated for 4 h, the 384-well plate of HEK-Blue-hTLR7/8 was taken out from the incubator, and R848 alone or both R848 and the diluted compound were separately added into each well. The plate was placed at 37°C in a 5% CO2 incubator for incubation for 16 h; the 384-well plate of HEK-Blue-hTLR9 was taken out from the incubator, and ODN2006 alone or both ODN2006 and the diluted compound were added separately to each well. The plate was incubated at 37°C in a 5% CO2 incubator for 16 h. 5. After being incubated for 16 h, the 384-well plate was removed from the incubator and centrifuged at 1000 rpm for 1 minute. The optical density value of each well at 620 nm was measured using a multifunctional microplate reader. 6. The cell inhibition rate was calculated as (1-(OD620 test group-OD620 blank group)/(OD620 positive group-OD620 blank group))×100%, and the half maximal inhibitory concentration (IC50) was calculated through curve fitting. Table 1: Activity of the compounds of the present disclosure in HEK-Blue-hTLR7/8/9 cellular assays

Row | IC50 | SMILES
1 | > 10 µM | CN1CCN(c2nnc([C@]34CN(c5ccc(C#N)c6ncccc56)C[C@@]3(C(F)(F)F)C4)o2)CC1 [Compound 1, 5-((1S,5R)-1-(5-(4-methylpiperazin-1-yl)-1,3,4-oxadiazol-2-yl)-5-(trifluoromethyl)-3-azabicyclo[3.1.0]hexan-3-yl)quinoline-8-carbonitrile]
2 | > 10 µM | Cc1cc(N2CC3(c4nnc(C5CCN(C)CC5)o4)C[C@]3(C(F)(F)F)C2)c2cnn(C)c2n1 (stereo partly drawn) [Compound 2, 2-((5R)-3-(1,6-dimethyl-1H-pyrazolo[3,4-b]pyridin-4-yl)-5-(trifluoromethyl)-3-azabicyclo[3.1.0]hexan-1-yl)-5-(1-methylpiperidin-4-yl)-1,3,4-oxadiazole]
3 | > 1 µM | FC(F)(F)c1ccc(N2C[C@]3(c4nnc(C5(F)CCNCC5)o4)C[C@]3(C(F)(F)F)C2)c2cccnc12 [Compound 3, 2-(4-fluoropiperidin-4-yl)-5-((1S,5R)-5-(trifluoromethyl)-3-(8-(trifluoromethyl)quinolin-5-yl)-3-azabicyclo[3.1.0]hexan-1-yl)-1,3,4-oxadiazole]
4 | > 1 µM | CN1CC(c2nnc([C@]34CN(c5ccc(C(F)(F)F)c6ncccc56)C[C@@]3(C(F)(F)F)C4)o2)C1 [Compound 4, 2-(1-methylazetidin-3-yl)-5-((1S,5R)-5-(trifluoromethyl)-3-(8-(trifluoromethyl)quinolin-5-yl)-3-azabicyclo[3.1.0]hexan-1-yl)-1,3,4-oxadiazole]
5 | > 1 µM | CN1CCC(c2nnc([C@]34CN(c5ccc(C#N)c6ncccc56)C[C@@]3(C(F)(F)F)C4)n2C)CC1 [Compound 5, 5-((1S,5R)-1-(4-methyl-5-(1-methylpiperidin-4-yl)-4H-1,2,4-triazol-3-yl)-5-(trifluoromethyl)-3-azabicyclo[3.1.0]hexan-3-yl)quinoline-8-carbonitrile]
6 | > 1 µM | CN1CCC(Nc2nnc([C@]34CN(c5ccc(C#N)c6ncccc56)C[C@@]3(C(F)(F)F)C4)o2)CC1 [Compound 6, 5-((1S,5R)-1-(5-((1-methylpiperidin-4-yl)amino)-1,3,4-oxadiazol-2-yl)-5-(trifluoromethyl)-3-azabicyclo[3.1.0]hexan-3-yl)quinoline-8-carbonitrile]
7 | > 10 µM | N#Cc1ccc(N2C[C@]3(c4nnc(N)o4)C[C@]3(C(F)(F)F)C2)c2cccnc12 [Compound 7, 5-((1S,5R)-1-(5-amino-1,3,4-oxadiazol-2-yl)-5-(trifluoromethyl)-3-azabicyclo[3.1.0]hexan-3-yl)quinoline-8-carbonitrile]
8 | > 1 µM | CN1CCC(c2nnc([C@]34CN(c5ccc(C#N)c6ncccc56)C[C@@]3(C(F)(F)F)C4)[nH]2)CC1 [Compound 9, 5-((1S,5R)-1-(5-(1-methylpiperidin-4-yl)-4H-1,2,4-triazol-3-yl)-5-(trifluoromethyl)-3-azabicyclo[3.1.0]hexan-3-yl)quinoline-8-carbonitrile]
9 | > 10 µM | N#Cc1ccc(N2C[C@]3(c4nnc(C5CCOCC5)o4)C[C@]3(C(F)(F)F)C2)c2cccnc12 [Compound 12, 5-((1S,5R)-1-(5-(tetrahydro-2H-pyran-4-yl)-1,3,4-oxadiazol-2-yl)-5-(trifluoromethyl)-3-azabicyclo[3.1.0]hexan-3-yl)quinoline-8-carbonitrile]
10 | > 1 µM | CN1CC2(CCC(c3nnc([C@]45CN(c6ccc(C#N)c7ncccc67)C[C@@]4(C(F)(F)F)C5)o3)CC2)C1 [Compound 13, 5-((1S,5R)-1-(5-(2-methyl-2-azaspiro[3.5]nonan-7-yl)-1,3,4-oxadiazol-2-yl)-5-(trifluoromethyl)-3-azabicyclo[3.1.0]hexan-3-yl)quinoline-8-carbonitrile]
11 | > 1 µM | CN1CC2CC1CC2c1nnc([C@]23CN(c4ccc(C#N)c5ncccc45)C[C@@]2(C(F)(F)F)C3)o1 (stereo partly drawn) [Compound 14, 5-((1S,5R)-1-(5-(2-methyl-2-azabicyclo[2.2.1]heptan-5-yl)-1,3,4-oxadiazol-2-yl)-5-(trifluoromethyl)-3-azabicyclo[3.1.0]hexan-3-yl)quinoline-8-carbonitrile]
12 | > 1 µM | CN1CCC(Oc2nnc([C@]34CN(c5ccc(C#N)c6ncccc56)C[C@@]3(C(F)(F)F)C4)o2)CC1 [Compound 15, 5-((1S,5R)-1-(5-((1-methylpiperidin-4-yl)oxy)-1,3,4-oxadiazol-2-yl)-5-(trifluoromethyl)-3-azabicyclo[3.1.0]hexan-3-yl)quinoline-8-carbonitrile]
13 | > 10 µM | N#Cc1ccc(N2C[C@]3(c4nnc(C5CCN(CC(N)=O)CC5)o4)C[C@]3(C(F)(F)F)C2)c2cccnc12 [Compound 17, 2-(4-(5-((1S,5R)-3-(8-cyanoquinolin-5-yl)-5-(trifluoromethyl)-3-azabicyclo[3.1.0]hexan-1-yl)-1,3,4-oxadiazol-2-yl)piperidin-1-yl)acetamide]
14 | > 1 µM | CN1CC2(CC(c3nnc([C@]45CN(c6ccc(C#N)c7ncccc67)C[C@@]4(C(F)(F)F)C5)o3)C2)C1 [Compound 19, 5-((1S,5R)-1-(5-(2-methyl-2-azaspiro[3.3]heptan-6-yl)-1,3,4-oxadiazol-2-yl)-5-(trifluoromethyl)-3-azabicyclo[3.1.0]hexan-3-yl)quinoline-8-carbonitrile]

Row | SMILES | IC50
15 | CN1CCC(C)(c2nnc([C@]34CN(c5ccc(C#N)c6ncccc56)C[C@@]3(C(F)(F)F)C4)o2)CC1 [Compound 8, 5-((1S,5R)-1-(5-(1,4-dimethylpiperidin-4-yl)-1,3,4-oxadiazol-2-yl)-5-(trifluoromethyl)-3-azabicyclo[3.1.0]hexan-3-yl)quinoline-8-carbonitrile] | > 1 µM
16 | CN1[C@@H]2CC[C@H]1C[C@H](c1nnc([C@]34CN(c5ccc(C#N)c6ncccc56)C[C@@]3(C(F)(F)F)C4)o1)C2 [Compound 11, 5-((1S,5R)-1-(5-((1R,3S,5S)-8-methyl-8-azabicyclo[3.2.1]octan-3-yl)-1,3,4-oxadiazol-2-yl)-5-(trifluoromethyl)-3-azabicyclo[3.1.0]hexan-3-yl)quinoline-8-carbonitrile] | > 1 µM
17 | N#Cc1ccc(N2C[C@]3(c4nnc(C5CC6(CNC6)C5)o4)C[C@]3(C(F)(F)F)C2)c2cccnc12 [Compound 18, 5-((1S,5R)-1-(5-(2-azaspiro[3.3]heptan-6-yl)-1,3,4-oxadiazol-2-yl)-5-(trifluoromethyl)-3-azabicyclo[3.1.0]hexan-3-yl)quinoline-8-carbonitrile] | < 1 µM
18 | N#Cc1ccc(N2C[C@]3(c4nnc([C@H]5CC[C@H](N)CC5)o4)C[C@]3(C(F)(F)F)C2)c2cccnc12 [Compound 20, 5-((1S,5R)-1-(5-((1R,4S)-4-aminocyclohexyl)-1,3,4-oxadiazol-2-yl)-5-(trifluoromethyl)-3-azabicyclo[3.1.0]hexan-3-yl)quinoline-8-carbonitrile] | > 1 µM

— EP4806891A1 (Kangbaida (Sichuan) Biotechnology Co., Ltd., priority 2023, dated 2025)
